Source: US11850220B2 (Augusta University Research Institute, Inc., priority 2020, dated 2023)

Legend:
Format in all cases: in vivo
[1] = tested on: carrageenan-induced paw edema; experiment: carrageenan-induced paw edema technique (anti-inflammatory); conditions: for Observed (1/property): 1/(% inhibition of edema thickness at 3 h effect); for Observed (1/property): test concentration or dose not given here; for Potency (% Inhibition relative to indomethacin at 3 h effect): test concentration or dose not given here
Description: Anti-inflammatory properties of the ibuprofen-amino acid conjugate (5a-j) and ibuprofen-amino acid-4-aminophenol conjugates 7a-j were studied by the standard carrageenan-induced paw edema technique (Naumov, R. N. et al., Bioorg. Med. Chem. Lett. 2015, 25, 2314-2320; Tiwari, A. D. et al., Org. Biomol. Chem. 2014, 12, 7238-7249).

[2] = tested on: acetic acid-induced abdominal writhing; experiment: acetic acid-induced abdominal writhing technique (peripheral analgesic); conditions: for Potency: Relative to indomethacin; for % Inhibition/protection / Writing reflex ± SEM: in vivo; for % Inhibition/protection: test concentration or dose not given here; for Writing reflex ± SEM: test concentration or dose not given here
hot plate = hot plate technique (central analgesic); conditions: for Potency: Relative to indomethacin at 120 min.
[3] = % inhibition of edema thickness at 3 h effect, Table 7
[4] = anti-inflammatory property (% inhibition of edema at 3 h), Table 8

Compound	Observed (1/property) ([1]; Table 7)	% inhibition of edema ([1]; 1 h) [%]	Mean edema thickness ([1]; 1 h) [mm]	% inhibition of edema ([1]; 2 h) [%]	Mean edema thickness ([1]; 2 h) [mm]	% inhibition of edema ([1]; 3 h) [%]	Mean edema thickness ([1]; 3 h) [mm]	% inhibition of edema ([1]; 4 h) [%]	Mean edema thickness ([1]; 4 h) [mm]	% inhibition of edema ([1]; 24 h) [%]	Mean edema thickness ([1]; 24 h) [mm]	Observed property [1, 3] [%]	Observed property [1, 4] [%]	Potency (% Inhibition relative to indomethacin at 3 h effect) [1] [%]	Potency [2]	% Inhibition/protection [2] [%]	Writing reflex ± SEM [2]	% protection (hot plate; After 30 min.)	Latency period ± SEM (hot plate; After 30 min.) [s]	% protection (hot plate; After 60 min.)	other results
CC(C)Cc1ccc(C(C)C(=O)NCCC(=O)O)cc1 (stereo not drawn) [Compound 5c, 3-(2-(4-Isobutylphenyl)propanamido)propanoic acid]	0.01887	43	0.70 ± 0.03	29	1.07 ± 0.07	53	0.61 ± 0.04	36	0.80 ± 0.03	21	0.15 ± 0.01	53	53	66	8	4.2	93.2 ± 1.4	(16.5) %	2.82 ± 0.04	(35.0) %	Latency period ± SEM (hot plate; After 60 min.): 3.01 ± 0.02 s; % protection (hot plate; After 90 min.): (20.5) %; Latency period ± SEM (hot plate; After 90 min.): 2.65 ± 0.05 s; % protection (hot plate; After 120 min.): (20.1) %; Latency period ± SEM (hot plate; After 120 min.): 2.63 ± 0.10 s; Potency (hot plate): 36
CC(C)Cc1ccc(C(C)C(=O)N[C@@H](C)C(=O)O)cc1 (stereo partly drawn) [Compound 5b, (2-(4-Isobutylphenyl)propanoyl)-L-alanine]	0.01923	34	0.81 ± 0.04	37	0.95 ± 0.02	52	0.63 ± 0.01	51	0.61 ± 0.03	32	0.13 ± 0.03	52	52	65	80	43.8	54.7 ± 2.0	(12.8) %	2.73 ± 0.03	(17.0) %	Latency period ± SEM (hot plate; After 60 min.): 2.61 ± 0.12 s; % protection (hot plate; After 90 min.): (20.9) %; Latency period ± SEM (hot plate; After 90 min.): 2.66 ± 0.01 s; % protection (hot plate; After 120 min.): (21.9) %; Latency period ± SEM (hot plate; After 120 min.): 2.67 ± 0.06 s; Potency (hot plate): 39
CC(C)Cc1ccc(C(C)C(=O)N[C@@H](CC(C)C)C(=O)O)cc1 (stereo partly drawn) [Compound 5g]	0.01724	5	1.17 ± 0.07	24	1.15 ± 0.06	58	0.55 ± 0.04	40	0.75 ± 0.05	42	0.11 ± 0.04	58	58	73	89	48.9	49.7 ± 1.2	(27.7) %	3.09 ± 0.04	(28.7) %	Latency period ± SEM (hot plate; After 60 min.): 2.87 ± 0.03 s; % protection (hot plate; After 90 min.): (4.1) %; Latency period ± SEM (hot plate; After 90 min.): 2.29 ± 0.05 s; % protection (hot plate; After 120 min.): (3.7) %; Latency period ± SEM (hot plate; After 120 min.): 2.27 ± 0.03 s; Potency (hot plate): 7
CC[C@H](C)C(NC(=O)C(C)c1ccc(CC(C)C)cc1)C(=O)O (stereo in doubt) [Compound 5f, (2-(4-Isobutylphenyl)propanoyl)-L-isoleucine]	0.01613	27	0.90 ± 0.05	29	1.07 ± 0.06	62	0.50 ± 0.03	29	0.89 ± 0.04	47	0.10 ± 0.03	62	62	78	85	46.8	51.8 ± 1.6	(14.9) %	2.78 ± 0.05	(15.2) %	Latency period ± SEM (hot plate; After 60 min.): 2.57 ± 0.07 s; % protection (hot plate; After 90 min.): (25.9) %; Latency period ± SEM (hot plate; After 90 min.): 2.77 ± 0.05 s; % protection (hot plate; After 120 min.): (48.9) %; Latency period ± SEM (hot plate; After 120 min.): 3.26 ± 0.04 s; Potency (hot plate): 86
CC(C)Cc1ccc(C(C)C(=O)N[C@@H](Cc2ccccc2)C(=O)O)cc1 (stereo partly drawn) [Compound 5e, (2-(4-Isobutylphenyl)propanoyl)-L-phenylalanine]	0.01613	25	0.92 ± 0.07	19	1.22 ± 0.08	62	0.50 ± 0.04	30	0.88 ± 0.05	74	0.05 ± 0.02	62	62	78	84	46.0	52.5 ± 1.2	(24.0) %	3.00 ± 0.04	(30.5) %	Latency period ± SEM (hot plate; After 60 min.): 2.91 ± 0.01 s; % protection (hot plate; After 90 min.): (35.5) %; Latency period ± SEM (hot plate; After 90 min.): 2.98 ± 0.03 s; % protection (hot plate; After 120 min.): (48.4) %; Latency period ± SEM (hot plate; After 120 min.): 3.25 ± 0.02 s; Potency (hot plate): 86
CC(C)Cc1ccc(C(C)C(=O)N[C@H](C(=O)O)C(C)C)cc1 (stereo partly drawn) [Compound 5h]	0.01754	11	1.09 ± 0.08	14	1.30 ± 0.07	57	0.56 ± 0.05	49	0.64 ± 0.06	84	0.03 ± 0.02	57	57	72	54	29.6	68.5 ± 2.0	(12.8) %	2.73 ± 0.05	(20.6) %	Latency period ± SEM (hot plate; After 60 min.): 2.69 ± 0.04 s; % protection (hot plate; After 90 min.): (9.5) %; Latency period ± SEM (hot plate; After 90 min.): 2.41 ± 0.02 s; % protection (hot plate; After 120 min.): (6.4) %; Latency period ± SEM (hot plate; After 120 min.): 2.33 ± 0.02 s; Potency (hot plate): 11
